Test results taken from PMC5908784, “Extracellular loops 2 and 3 of the calcitonin receptor selectively modify agonist binding and efficacy” (Biochemical Pharmacology, 2018).
Changes are numbered by the printed parent chain. Where a SMILES comes first, the peptide text is derived from it. Bridges are numbered along the chain shown (N, C = ends).

Assays:
Test in all cases: ERK1/2 phosphorylation
Type in all cases: cell-based
hCTR Y284A = target: T1, hCTR Y284A (Homo sapiens, UniProt P30988, Y284A); settings: CV1-FlpIn cells, mean ± S.E.M.; for Emax: pERK maximal response; for EC50: pERK, three-parameter logistic fit
T1 construct: expressed in transfected cells
T1 sequence (P30988 25-474 Y284A): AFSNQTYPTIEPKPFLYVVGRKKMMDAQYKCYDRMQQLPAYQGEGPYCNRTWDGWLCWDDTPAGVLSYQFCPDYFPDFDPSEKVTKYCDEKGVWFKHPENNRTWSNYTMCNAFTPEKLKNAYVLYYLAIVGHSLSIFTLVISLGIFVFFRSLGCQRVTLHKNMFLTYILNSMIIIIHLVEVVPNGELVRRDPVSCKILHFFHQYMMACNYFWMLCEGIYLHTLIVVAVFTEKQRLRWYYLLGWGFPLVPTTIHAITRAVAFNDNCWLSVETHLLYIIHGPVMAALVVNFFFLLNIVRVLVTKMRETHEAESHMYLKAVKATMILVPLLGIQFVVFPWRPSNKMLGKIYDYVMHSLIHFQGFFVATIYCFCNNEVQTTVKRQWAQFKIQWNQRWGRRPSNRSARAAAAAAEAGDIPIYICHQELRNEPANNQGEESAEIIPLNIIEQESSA
How it was run: (§1)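 Overnight-plated cells at 2.5 × 10^4/well are stimulated, and ERK1/2 phosphorylation is referenced to the 10% FBS response at 6 min before logistic curve fitting.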

hCTR V375A = target: T2, hCTR V375A (Homo sapiens, UniProt P30988, V375A); settings: CV1-FlpIn cells, mean ± S.E.M.; for Emax: pERK maximal response; for EC50: pERK, three-parameter logistic fit
T2 construct: c-Myc (N); expressed in transfected cells
T2 sequence (P30988 25-474 V375A): T1 sequence (P30988 25-474 Y284A) with A260Y, V351A
How it was run: as §1

hCTR R362A = target: T3, hCTR R362A (Homo sapiens, UniProt P30988, R362A); settings: CV1-FlpIn cells, mean ± S.E.M.; for Emax: pERK maximal response; for EC50: pERK, three-parameter logistic fit
T3 construct: expressed in transfected cells
T3 sequence (P30988 25-474 R362A): T1 sequence (P30988 25-474 Y284A) with A260Y, R338A
How it was run: as §1

hCTR L297A = target: T4, hCTR L297A (Homo sapiens, UniProt P30988, L297A); settings: CV1-FlpIn cells, mean ± S.E.M.; for Emax: pERK maximal response; for EC50: pERK, three-parameter logistic fit
T4 construct: c-Myc (N); expressed in transfected cells
T4 sequence (P30988 25-474 L297A): T1 sequence (P30988 25-474 Y284A) with A260Y, L273A
How it was run: as §1

hCTR Y372A = target: T5, hCTR Y372A (Homo sapiens, UniProt P30988, Y372A); settings: CV1-FlpIn cells, mean ± S.E.M.; for Emax: pERK maximal response
T5 construct: c-Myc (N); expressed in transfected cells
T5 sequence (P30988 25-474 Y372A): T1 sequence (P30988 25-474 Y284A) with A260Y, Y348A
How it was run: as §1

| Structure (SMILES) | Emax (hCTR Y284A) [%] | Emax (hCTR V375A) [%] | Emax (hCTR R362A) [%] | Emax (hCTR L297A) [%] | Emax (hCTR Y372A) [%] | EC50 (hCTR Y284A) [nM] | EC50 (hCTR V375A) [nM] | EC50 (hCTR R362A) [nM] | EC50 (hCTR L297A) [nM] | EC50 (hCTR Y372A; pERK, three-parameter logistic fit) [nM] |
| --- | --- | --- | --- | --- | --- | --- | --- | --- | --- | --- |
| CC(C)C[C@H](NC(=O)[C@H](CCCCN)NC(=O)CNC(=O)[C@H](CC(C)C)NC(=O)[C@@H](NC(=O)[C@@H]1CSSC[C@H](N)C(=O)N[C@@H](CO)C(=O)N[C@@H](CC(N)=O)C(=O)N[C@@H](CC(C)C)C(=O)N[C@@H](CO)C(=O)N[C@@H]([C@@H](C)O)C(=O)N1)C(C)C)C(=O)N[C@@H](CO)C(=O)N[C@@H](CCC(N)=O)C(=O)N[C@@H](CCC(=O)O)C(=O)N[C@@H](CC(C)C)C(=O)N[C@@H](Cc1c[nH]cn1)C(=O)N[C@@H](CCCCN)C(=O)N[C@@H](CC(C)C)C(=O)N[C@@H](CCC(N)=O)C(=O)N[C@H](C(=O)N[C@@H](Cc1ccc(O)cc1)C(=O)N1CCC[C@H]1C(=O)N[C@@H](CCCNC(=N)N)C(=O)N[C@H](C(=O)N[C@@H](CC(N)=O)C(=O)N[C@H](C(=O)NCC(=O)N[C@@H](CO)C(=O)NCC(=O)N[C@H](C(=O)N1CCC[C@H]1C(N)=O)[C@@H](C)O)[C@@H](C)O)[C@@H](C)O)[C@@H](C)O [sCT] | 96 ± 6 | 70 ± 3 | 107 ± 10 | 68 ± 4 | 39 ± 3 |  |  |  |  |  |
| CC(C)C[C@H](NC(=O)[C@H](CC(N)=O)NC(=O)[C@H](CC(N)=O)NC(=O)[C@H](CO)NC(=O)[C@H](CO)NC(=O)[C@H](CCCNC(=N)N)NC(=O)[C@@H](NC(=O)[C@H](CC(C)C)NC(=O)[C@H](Cc1ccccc1)NC(=O)[C@H](CC(N)=O)NC(=O)[C@H](C)NC(=O)[C@H](CC(C)C)NC(=O)[C@H](CCCNC(=N)N)NC(=O)[C@H](CCC(N)=O)NC(=O)[C@@H](NC(=O)[C@H](C)NC(=O)[C@@H]1CSSC[C@H](NC(=O)[C@@H](N)CCCCN)C(=O)N[C@@H](CC(N)=O)C(=O)N[C@@H]([C@@H](C)O)C(=O)N[C@@H](C)C(=O)N[C@@H]([C@@H](C)O)C(=O)N1)[C@@H](C)O)C(C)C)C(=O)NCC(=O)N1CCC[C@H]1C(=O)N[C@H](C(=O)N[C@@H](CC(C)C)C(=O)N1CCC[C@H]1C(=O)N1CCC[C@H]1C(=O)N[C@H](C(=O)N[C@@H](CC(N)=O)C(=O)N[C@H](C(=O)NCC(=O)N[C@@H](CO)C(=O)N[C@@H](CC(N)=O)C(=O)N[C@H](C(=O)N[C@@H](Cc1ccc(O)cc1)C(N)=O)[C@@H](C)O)C(C)C)[C@@H](C)O)C(C)C [rAmy] | 64 ± 6 | 77 ± 13 | 36 ± 7 | 49 ± 6 |  |  |  |  |  |  |
| CC[C@H](C)[C@H](NC(=O)[C@H](C)NC(=O)[C@@H](NC(=O)[C@H](CCC(N)=O)NC(=O)[C@@H]1CCCN1C(=O)[C@H](Cc1ccccc1)NC(=O)[C@@H](NC(=O)[C@H](Cc1c[nH]cn1)NC(=O)[C@H](Cc1ccccc1)NC(=O)[C@H](CCCCN)NC(=O)[C@H](CC(N)=O)NC(=O)[C@H](Cc1ccccc1)NC(=O)[C@H](CC(=O)O)NC(=O)[C@H](CCC(N)=O)NC(=O)[C@@H](NC(=O)[C@H](Cc1ccc(O)cc1)NC(=O)[C@@H](NC(=O)CNC(=O)[C@H](CC(C)C)NC(=O)[C@H](CCSC)NC(=O)[C@@H]1CSSC[C@H](N)C(=O)NCC(=O)N[C@@H](CC(N)=O)C(=O)N[C@@H](CC(C)C)C(=O)N[C@@H](CO)C(=O)N[C@@H]([C@@H](C)O)C(=O)N1)[C@@H](C)O)[C@@H](C)O)[C@@H](C)O)[C@@H](C)O)C(=O)NCC(=O)N[C@H](C(=O)NCC(=O)N[C@@H](C)C(=O)N1CCC[C@H]1C(N)=O)C(C)C [hCT] | 82 ± 7 | 67 ± 3 | 64 ± 7 | 63 ± 5 | 46 ± 4 |  |  |  |  |  |
| CC(C)C[C@H](NC(=O)CNC(=O)[C@H](C)NC(=O)[C@H](CC(C)C)NC(=O)[C@H](CCCNC(=N)N)NC(=O)[C@H](Cc1cnc[nH]1)NC(=O)[C@@H](NC(=O)[C@@H](NC(=O)[C@@H]1CSSC[C@H](NC(=O)[C@H](C)N)C(=O)N[C@@H](CC(=O)O)C(=O)N[C@@H]([C@@H](C)O)C(=O)N[C@@H](C)C(=O)N[C@@H]([C@@H](C)O)C(=O)N1)C(C)C)[C@@H](C)O)C(=O)N[C@@H](CC(C)C)C(=O)N[C@@H](CO)C(=O)N[C@@H](CCCNC(=N)N)C(=O)N[C@@H](CO)C(=O)NCC(=O)NCC(=O)N[C@H](C(=O)N[C@H](C(=O)N[C@@H](CCCCN)C(=O)N[C@@H](CC(N)=O)C(=O)N[C@@H](CC(N)=O)C(=O)N[C@@H](Cc1ccccc1)C(=O)N[C@H](C(=O)N1CCC[C@H]1C(=O)N[C@H](C(=O)N[C@@H](CC(N)=O)C(=O)N[C@H](C(=O)NCC(=O)N[C@@H](CO)C(=O)N[C@@H](CCCCN)C(=O)N[C@@H](C)C(=O)N[C@@H](Cc1ccccc1)C(N)=O)C(C)C)[C@@H](C)O)C(C)C)C(C)C)C(C)C [hαCGRP] | 79 ± 15 | 58 ± 7 | 31 ± 8 | 73 ± 12 |  | 112 | 110 | 112 | 97.7 |  |
| CSCC[C@H](NC(=O)CNC(=O)[C@H](CO)NC(=O)[C@H](Cc1ccccc1)NC(=O)[C@H](CCCNC(=N)N)NC(=O)[C@H](Cc1c[nH]cn1)NC(=O)[C@H](Cc1ccccc1)NC(=O)[C@H](CC(N)=O)NC(=O)[C@H](CC(N)=O)NC(=O)[C@H](CC(C)C)NC(=O)[C@H](CC(N)=O)NC(=O)[C@H](CCCNC(=N)N)NC(=O)[C@H](Cc1c[nH]c2ccccc12)NC(=O)[C@H](Cc1ccc(O)cc1)NC(=O)[C@H](C)NC(=O)[C@H](CO)NC(=O)[C@H](CC(C)C)NC(=O)[C@@H](NC(=O)[C@@H]1CSSC[C@H](N)C(=O)N[C@@H](CO)C(=O)N[C@@H](CC(N)=O)C(=O)N[C@@H](CC(C)C)C(=O)N[C@@H](CO)C(=O)N[C@@H]([C@@H](C)O)C(=O)N1)C(C)C)C(=O)NCC(=O)N[C@@H](Cc1ccccc1)C(=O)NCC(=O)N1CCC[C@H]1C(=O)N[C@@H](CCC(=O)O)C(=O)N[C@H](C(=O)N1CCC[C@H]1C(N)=O)[C@@H](C)O [pCT] (H-CSNLSTCVLSAYWRNLNNFHRFSGMGFGPETP-NH2; disulfide 1-7) | 81 ± 6 | 89 ± 4 | 45 ± 4 | 59 ± 4 | 26 ± 4 | 1.2 | 2.63 | 7.59 | 0.977 | 19.1 |
